The values that follow are results of earlier work, collected in patent US20040241252A1, “Pharmaceutical compositions for oral administration comprising lithium carbonate, processes of making the same, and methods of administering the same” (priority 2003, published 2004).

SMILES strings stand for the structures.

Consider `[Cl-].[Li+]` [lithium chloride], for which, for the setting “single liquefied dose, volunteers”, the mean absorption half-time is 0.15 h.

Take `[Li+]` [Li^+, lithium ion]: the “time to complete absorption” value (oral, gastrointestinal tract) is reported as “about 8 hours”. Besides, for the setting “single dose”, the “fraction of a single dose eliminated in the urine” value is on record as “Ninety-five”.
